The text below walks through data of patent publication US9181182B2, “S1P receptors modulators” (Akaal Pharma PTY LTD, priority 2008, dated 2015).

Structures can show the parent of a compound that is named as a salt.

The subject of assay [1] is Human promyelocytic leukemia (HL-60) cells. The assay is described as follows: Cell viability (growth inhibition) assay, MTS. It is filed as cell-based. To be noted: 50% reduction in cell viability of HL-60 cells, 48 hr incubation. As for the experimental part: In order to measure the apoptotic effect of compounds on the metabolic activity of viable cells, the following assay was performed on Human promyelocytic leukemia cells. The assay utilises the tetrazolium compound (3-(4,5-dimethylthiazol-2-yl)-5-(3-carboxymethoxyphenyl)-2-(4-sulfophenyl)-2H-tetrazolium, inner salt; (MTS) and an electron coupling reagent (phenazine methosulfate; (PMS). MTS is bioreduced by cells into a formazan product the optical absorbance of which is measured directly from 96 well assay plates. The conversion of MTS into aqueous, soluble formazan is accomplished by dehydrogenase enzymes found in metabolically active cells. The quantity of formazan product as measured by the amount of 490 nm absorbance is directly proportional to the number of living cells in culture.
The assay was based on the National Cancer Institute (NCI) protocol, briefly, cells were grown in RPMI 1640 media supplemented with 10% FCS (foetal calf serum) and kept at 37° C. in a humidified environment with 5% CO2.
For the growth inhibition assay, Human promyelocytic leukemia (HL-60) cells were seeded at a density of 10,000 cells per well in 96 well plates in a volume of 100 μl and allowed to grow for 24 h. Compounds were serially diluted in DMSO at concentrations 100 fold higher than used in the assay (100×). Compounds were freshly prepared for each experiment. The 100× stocks were then diluted to 2× stocks into media and immediately, 100 μl of this 2× stock was added to the cells to create the desired final concentration of drug with a DMSO concentration of 1%. One row of each 96 well plate was treated with DMSO alone as a control. Cells were then incubated for a further 48 hr. Metabolic activity was determined using MTS (Promega) (90% 1.6 mg/ml MTS, 10% 1.6 mg/ml PMS (phenazine methosulfate) made fresh in PBS). 50 μl of this mix was added to all wells of the plates and allowed to incubate for 1.5-2 hr. Plates were shaken gently for about 15 min and absorbance was read on a plate reader at 490 nm. Averages were taken of the readings at each point with standard deviation and plotted using MicroCal Origin.

A further assay addresses S1P1 human receptor (Homo sapiens (Human), UniProt P21453). The experiment in a line: S1P1 [35S]-GTPgamaS binding assay (agonist activity). In kind it is biochemical. The settings on record: for EC50S1P1/EC50S1P: potency at S1P1 relative to S1P; for EC50: GTPgamaS binding, agonist; for Efficacy (% of maximum): S1P1, relative to reference agonist S1P. As for the experimental part: Selected Compounds of the Examples were evaluated at Millipore Corporation, USA, using S1P1 receptor; [^35S]-GTPgamaS binding assay. A [^35S]-GTPgamaS binding assay at Millipore was conducted by GPCR Profiler™ Custom Service Laboratory, Temecula, Calif., Millipore, Inc. to monitor dose-dependent agonist selectivity for selected Examples against the S1P1 receptors. The assay was completed with sample compounds subjected to an eight-point, four-fold dose response curve with starting concentration of 10 μM. Selectivity was determined upon initial addition of compounds followed by a 30 minute incubation at 30° C. Following compound incubation, bounded [^35S]-GTPgamaS was determined by filtration and scintillation counting.
Independently, selected compounds were evaluated for S1P1 and S1P3 agonistic activity. The S1P1 assay system was GTPgama-S35 binding in membranes from CHO K1 cells, expressing S1P1 human receptor. The S1P3 assay system was calcium mobilization in CHO K1 cells expressing S1P3 human receptor. […] Compounds were tested initially at a concentration of 10 μM.

S1P1 human receptor, sequence (P21453 whole entry): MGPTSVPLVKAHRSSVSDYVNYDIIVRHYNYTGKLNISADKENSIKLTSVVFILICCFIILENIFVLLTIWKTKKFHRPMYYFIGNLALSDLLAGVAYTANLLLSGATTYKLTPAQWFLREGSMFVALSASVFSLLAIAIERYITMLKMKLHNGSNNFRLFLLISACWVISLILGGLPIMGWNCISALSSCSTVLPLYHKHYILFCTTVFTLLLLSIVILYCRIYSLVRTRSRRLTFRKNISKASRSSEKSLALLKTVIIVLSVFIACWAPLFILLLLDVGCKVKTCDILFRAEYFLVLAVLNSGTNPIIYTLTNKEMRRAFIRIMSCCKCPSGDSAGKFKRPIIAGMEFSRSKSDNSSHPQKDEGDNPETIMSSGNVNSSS

With “2-Amino-2-((5-(5-3-(1-admantyl)-3-methoxyphenyl)-1,2,4-oxadiazol-3-yl)indolin-1-yl)methyl)propane-1,3-diol [Example 33]”, it took 2910 ± 130 nM to reach half-maximal inhibition in assay [1] (IC50). Moreover, the EC50S1P1/EC50S1P on S1P1 human receptor is recorded as over 1000.
In the case of `NC(CO)(CO)CN1CCc2c(OCc3cc4c(Cl)cc(Cl)cc4o3)cccc21` [41(a), 2-Amino-2-((4-((4,6-dichlorobenzofuran-2-yl)methoxy)indolin-1-yl)methyl)propane-1,3-diol], the IC50 – broadly, the midpoint of a concentration-inhibition curve – in assay [1] (Homo sapiens) amounted to 2550 ± 780 nM. For the same compound, at S1P1 human receptor, the EC50 (as a rule, the concentration needed to bring the measured effect to its halfway point) was over 1360 nM; the “Efficacy (% of maximum)” value is 42%; the EC50S1P1/EC50S1P was found to be 144.46.
As to `CCCCCCCCc1ccc2c(c1)CN(CC(N)(CO)CO)C2` [Example 2, 2-Amino-2-((5-octylisoindolin-2-yl)methyl)propane-1,3-diol], in assay [1] (Homo sapiens), 3480 ± 140 nM corresponded to half-maximal inhibition (IC50). Further, at S1P1 human receptor, a half-maximal effect (EC50) was put at 1560 nM, the “Efficacy (% of maximum)” value is given as 91% and the EC50S1P1/EC50S1P came to 593.
Taken in the same sequence, the figures for `CCCCCCCCc1ccc2c(c1)CCN2CC(N)(CO)CO` [Example 3, 2-Amino-2-((5-octylindolin-1-yl)methyl)propane-1,3-diol] were 3700 ± 1020 nM, 2110 nM, 73% and 709.
In turn, `COc1ccc(-c2nc(-c3ccc4c(c3)CCN4CC(N)(CO)CO)no2)cc1Cl` [Example 7, 2-Amino-2-((5-(5-(3-chloro-4-methoxyphenyl)-1,2,4-oxadiazol-3-yl)indolin-1-yl)methyl)propane-1,3-diol] had an IC50 in assay [1] (Homo sapiens) of 3070 ± 460 nM. For the same compound, on S1P1 human receptor, the EC50 worked out at 783 nM, the “Efficacy (% of maximum)” value was 109% and the EC50S1P1/EC50S1P is reported as 278.
The like results for `NC(CO)(CO)CN1CCc2cc(OCc3cc4c(Cl)cc(Cl)cc4o3)ccc21` [Example 8, 2-Amino-2-((5-((4,6-dichlorobenzofuran-2-yl)methoxy)indolin-1-yl)methyl) propane-1,3-diol] were, in that order, 1930 ± 580 nM, 131 nM, 85% and 23.
Compound `CCCCCCCCc1ccc2c(c1)CCCN2CC(N)(CO)CO` [Example 9, 2-Amino-2-((6-octyl-3,4-dihydroquinolin-1(2H)-yl)methyl)propane-1,3-diol] returned an IC50 in assay [1] (Homo sapiens) of 2460 ± 510 nM. Besides, on S1P1 human receptor, the EC50 is over 860 nM and the EC50S1P1/EC50S1P is reported as over 1000.
Turning to `CCCCCCCCc1ccc2c(c1)CCN(CC(N)(CO)CO)C2` [Example 10, 2-Amino-2-((6-octyl-3,4-dihydroisoquinolin-2(1H)-yl)methyl)propane-1,3-diol], 1380 ± 170 nM corresponded to half-maximal inhibition in assay [1] (Homo sapiens) (IC50). Besides, on S1P1 human receptor, the EC50 was over 510 nM and the EC50S1P1/EC50S1P was over 1000.
`CC1(C)C2CCC(CCOc3ccc(CCC(N)(CO)CO)cc3)C1C2.Cl` (centres unmarked) [Example 23, 2-Amino-2-(4-(2-(6,6-dimethylbicyclo[3.1.1]heptan-2-yl)ethoxy)phenethyl) propane-1,3-diol hydrochloride salt] showed a 50% inhibitory concentration (IC50) in assay [1] (Homo sapiens) of 2260 ± 680 nM. On S1P1 human receptor, it took 1240 nM to reach a half-maximal effect (EC50), the “Efficacy (% of maximum)” value is recorded as 72% and the EC50S1P1/EC50S1P is given as 419.
`Cc1ccc(OCCCc2ccc(CCC(N)(CO)CO)cc2)c(C23CC4CC(CC(C4)C2)C3)c1` [Example 29, 2-Amino-2-(4-(3-(2-(1-admanynyl)-4-methylphenoxy)propyl)phenethyl) propane-1,3-diol hydrochloride salt] displayed an IC50 in assay [1] of 3940 ± 400 nM.
For `COc1ccc(-c2nc(-c3ccc4c(c3)CCN4CC(N)(CO)CO)no2)cc1C12CC3CC(CC(C3)C1)C2` [Example 30], the IC50 in assay [1] turned out to be 3190 ± 260 nM. In addition, on S1P1 human receptor, the EC50 was over 55400 nM and the EC50S1P1/EC50S1P is on record as over 1000.
Regarding `CCCCCCCCc1ccc(CNCC(N)(CO)CO)cc1` [Example 31, 2-Amino-2-((4-octylbenzylamino)methyl)propane-1,3-diol], in assay [1] (Homo sapiens), the IC50 is over 10000 nM.
Consider `CCOc1ccc(-c2nc(-c3cccc4c3ccn4CC(N)(CO)CO)no2)cc1OCC` [Example 35, 2-Amino-2-((4-(5-(3,4-diethoxyphenyl)-1,2,4-oxadiazol-3-yl)-1H-indol-1-yl)methyl)propane-1,3-diol], for which it took 1700 ± 100 nM to reach half-maximal inhibition in assay [1] (Homo sapiens) (IC50). In addition, at S1P1 human receptor, the response was half-maximal at 54 nM (EC50), the “Efficacy (% of maximum)” value was 106% and the EC50S1P1/EC50S1P was determined as 4.75.
The like results for `NC(CO)(CO)CN1CCc2c(-c3noc(-c4ccc(-c5ccccc5C(F)(F)F)cc4)n3)cccc21` [Example 36, 2-Amino-2-((4-(5-(2′-(trifluoromethyl)biphenyl-4-yl)-1,2,4-oxadiazol-3-yl)indolin-1-yl)methyl)propane-1,3-diol] were, in that order, 1310 ± 350 nM, 501 nM, 99% and 65.
The compound `NC(CO)(CO)CN1CCc2cc(OCc3cccc(F)c3)ccc2C1` [Example 37, 2-Amino-2-((6-(3-fluorobenzyloxy)-3,4-dihydroisoquinolin-2(1H)-yl)methyl)propane-1,3-diol] returned an IC50 in assay [1] (Homo sapiens) of 26900 ± 9160 nM.
Turning to `Cc1cc2cc(-c3nc(-c4cccc5c4CCN5CC(N)(CO)CO)no3)ccc2o1` [Example 42, 2-Amino-2-((4-(5-(2-methylbenzofuran-5-yl)-1,2,4-oxadiazol-3-yl)indolin-1-yl)methyl)propane-1,3-diol], in assay [1] (Homo sapiens), half-maximal inhibition (IC50) was put at 1700 ± 100 nM. Moreover, on S1P1 human receptor, the EC50 came to 1420 nM, the “Efficacy (% of maximum)” value turned out to be 92% and the EC50S1P1/EC50S1P came to 117.8.
`CCOc1ccc(-c2nc(-c3cccc4c3ccn4CC(N)(CO)CO)no2)cc1Cl` [Example 49, 2-Amino-2-((4-(5-(3-chloro-4-ethoxyphenyl)-1,2,4-oxadiazol-3-yl)-1H-indol-1-yl)methyl)propane-1,3-diol]: the IC50 in assay [1] (Homo sapiens) was 10200 nM. For the same compound, at S1P1 human receptor, a half-maximal effect (EC50) was put at 114 nM, the “Efficacy (% of maximum)” value is listed as 112% and the EC50S1P1/EC50S1P was determined as 9.26.
The like results for `CCCOc1ccc(-c2nc(-c3cccc4c3CCN4CC(N)(CO)CO)no2)cc1Cl` [Example 50, 2-Amino-2-((4-(5-(3-chloro-4-propoxyphenyl)-1,2,4-oxadiazol-3-yl)indolin-1-yl)methyl)propane-1,3-diol] were, in that order, 3000 ± 170 nM, 17.9 nM, 87% and 1.3.
Turning to `CC(C)Oc1ccc(CCN(C)CC(N)(CO)CO)cc1C12CC3CC(CC(C3)C1)C2` [Example 60, 2-Amino-2-(((3-(1-admantyl)-4-isopropoxyphenethyl)(methyl)amino)methyl)propane-1,3-diol], the IC50 in assay [1] came out at 3300 ± 260 nM.
On the same count and under the same terms, under `CC(C)Oc1cc2c(cc1C13CC4CC(CC(C4)C1)C3)CN(CC(N)(CO)CO)CC2` [Example 61, 2-Amino-2-((7-(1-admantyl)-6-isopropoxy-3,4-dihydroisoquinolin-2(1H)-yl)methyl)propane-1,3-diol] stands 3270 ± 120 nM.
In assay [1] (Homo sapiens), `NC(CO)(CO)CN1CCC2CCCCC2C1` (centres unmarked) [Example 62, 2-Amino-2-((octahydroisoquinolin-2(1H)-yl)methyl)propane-1,3-diol] gave an IC50 of over 100000 nM.
With `NC(CO)(CO)CCc1ccc(-c2ccc(O)c(C34CC5CC(CC(C5)C3)C4)c2)cc1` [Example 64, 2-Amino-2-(2-(3′-(1-admantyl)-4′-hydroxybiphenyl-4-yl)ethyl)propane-1,3-diol hydrochloride salt], in assay [1], the IC50 was 3440 ± 120 nM.
